Measured values published in US7605160B2, “Pyrrolotriazine kinase inhibitors” (Bristol-Myers Squibb Company, priority 2006, dated 2009).

Legend:
[1] = biological target: T1, TrkA (Homo sapiens, UniProt P04629); assay: TrkA tyrosine kinase assay (33P phosphorylation of polyGluTyr by recombinant enzyme); type: biochemical; conditions: recombinant kinase domain of human TrkA, PGT substrate, 30 uM ATP
T1 construct: The kinase domain of the human TrkA receptor is expressed in Sf9 insect cells as a histidine (His)-fusion protein; His; made in house; host or cells: Sf9 insect cells (baculovirus)
From the text: The ability of compounds of the present invention to inhibit tyrosine kinase activity of TrkA may be measured using a recombinant enzyme in an assay that measures the ability of compounds to inhibit the phosphorylation of the exogenous substrate, polyGluTyr (PGT, Sigma™, 4:1). The kinase domain of the human TrkA receptor is expressed in Sf9 insect cells as a histidine (His)-fusion protein using a baculovirus expression system. The protein is purified from the lysates of these cells using an Ni-NTA affinity column. After the recombinant enzyme is purified, it is activated by incubation with cold ATP. The enzyme assay is performed in a 96-well plate. Test compounds are first dissolved in dimethylsulfoxide (DMSO) and then serially-diluted in a 96-well plate. The serially-diluted compounds are transferred to the 96-well assay plate so that the final concentration of DMSO in the enzyme assay is 1.64%. All assay components are diluted in phosphorylation buffer (20 mm MOPS, 10 mM MgCl2, 1 mM EDTA, 0.015% Brij-35, 0.1 mg/ml BSA, 0.0025% Beta-Mercaptoethanol). The recombinant enzyme is added to the assay plate containing test compound and the reaction is initiated with a substrate solution containing a final concentration of 0.1 mg/ml PGT, 30 uM ATP, and 0.008 mCi/ml ^33P-gammaATP (3000 Ci/mmol)(Perkin Elmer™) After a 1 hour incubation at 30° C., the reaction is terminated with 10% TCA and incubated at 4° C. for 1 hour. The reaction is filtered onto a Unifilter® GF/C™ filter plate (Perkin Elmer™) that has been presoaked with 0.1M NaPyrophosphate. Microscint-20 (Perkin Elmer™) is then added to the dried filter plate and the captured ^33P-phosphorylated PGT is quantitated on a microscintillation plate counter (TopCount•NXT™ (Perkin Elmer™)). Inhibition of the kinase enzymatic activity by the test compound is detected by a reduction in scintillation, and the concentration of compound that is required to inhibit the signal by 50% is reported as the IC50 value for the test compound.

[2] = biological target: T2, TrkB (Homo sapiens, UniProt Q16620); assay: TrkB tyrosine kinase assay (33P phosphorylation of polyGluTyr by recombinant enzyme); type: biochemical; conditions: recombinant kinase domain of human TrkB (amino acids 526-838), PGT substrate, 30 uM ATP
T2 construct: The kinase domain of the human TrkB receptor (amino acids 526-838); His; purchased Invitrogen; host or cells: insect cells
Experimental: The ability of compounds of the present invention to inhibit tyrosine kinase activity of TrkB may be measured using a recombinant enzyme in an assay that measures the ability of compounds to inhibit the phosphorylation of the exogenous substrate, polyGluTyr (PGT, Sigma™, 4:1). The kinase domain of the human TrkB receptor (amino acids 526-838) is expressed in insect cells as a histidine (His)-fusion protein and is commercially available from Invitrogen™. The enzyme assay is performed in a 96-well plate. Test compounds are first dissolved in dimethylsulfoxide (DMSO) and then serially-diluted in a 96-well plate. The serially-diluted compounds are transferred to the 96-well assay plate so that the final concentration of DMSO in the enzyme assay is 1.64%. All assay components are diluted in phosphorylation buffer (20 mm MOPS, 10 mM MgCl2, 1 mM EDTA, 0.015% Brij-35, 0.1 mg/ml BSA, 0.0025% Beta-Mercaptoethanol). The recombinant enzyme is added to the assay plate containing test compound and the reaction is initiated with a substrate solution containing a final concentration of 0.1 mg/ml PGT, 30 uM ATP, and 0.008 mCi/ml ^33P-gammaATP (3000 Ci/mmol) (Perkin Elmer™). After a 1 hour incubation at 30° C., the reaction is terminated with 10% TCA and incubated at 4° C. for 1 hour. The reaction is filtered onto a Unifilter® GF/C™ filter plate (Perkin Elmer™) that has been presoaked with 0.1M NaPyrophosphate. Microscint-20(Perkin Elmer™) is then added to the dried filter plate and the captured ^33P-phosphorylated PGT is quantitated on a microscintillation plate counter (TopCount•NXT™ (Perkin Elmer™)). Inhibition of the kinase enzymatic activity by the test compound is detected by a reduction in scintillation, and the concentration of compound that is required to inhibit the signal by 50% is reported as the IC50 value for the test compound.

T1 sequence (P04629 510-781 limits assumed): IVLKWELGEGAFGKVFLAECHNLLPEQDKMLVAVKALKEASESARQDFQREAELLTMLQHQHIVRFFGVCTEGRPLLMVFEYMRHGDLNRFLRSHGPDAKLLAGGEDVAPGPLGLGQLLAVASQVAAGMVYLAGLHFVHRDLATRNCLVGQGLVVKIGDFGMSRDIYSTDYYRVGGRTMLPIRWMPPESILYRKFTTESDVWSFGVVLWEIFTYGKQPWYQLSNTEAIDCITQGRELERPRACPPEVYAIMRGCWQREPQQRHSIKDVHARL
T2 sequence (Q16620 510-822): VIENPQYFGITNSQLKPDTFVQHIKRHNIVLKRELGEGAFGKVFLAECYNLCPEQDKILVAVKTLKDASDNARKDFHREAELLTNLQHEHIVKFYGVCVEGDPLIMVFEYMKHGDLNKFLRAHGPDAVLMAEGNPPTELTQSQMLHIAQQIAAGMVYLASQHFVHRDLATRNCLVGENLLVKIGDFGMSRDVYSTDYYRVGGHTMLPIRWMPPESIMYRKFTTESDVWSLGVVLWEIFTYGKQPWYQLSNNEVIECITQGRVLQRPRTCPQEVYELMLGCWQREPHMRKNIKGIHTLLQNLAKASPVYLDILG

Structure (SMILES)	IC50 [1] [µM]	IC50 [2] [µM]
Cc1cc(Nc2nc(NC3CCCCC3)nn3cccc23)[nH]n1 [Compound 9, N^2-cyclohexyl-N^4-(5-methyl-1H-pyrazol-3-yl)pyrrolo[2,1-f] [1,2,4]triazine-2,4-diamine]	0.074	0.225
NC1CCCC(Nc2nc(Nc3cc(C4CC4)n[nH]3)c3cccn3n2)C1 (centres unmarked) [Compound 12, N^2-(3-aminocyclohexyl)-N^4-(3-cyclopropyl-1H-pyrazol-5-yl) pyrrolo[2,1-f][1,2,4]triazine-2,4-diamine]	0.006	0.035
C[C@H](Nc1nc(Nc2cc(-c3ccccc3)n[nH]2)c2cccn2n1)c1ccc(F)cc1 [Compound 28, N^2-((1S)-1-(4-fluorophenyl)ethyl)-N^4-(3-phenyl-1H-pyrazol-5-yl) pyrrolo[2,1-f][1,2,4]triazine-2,4-diamine]	0.0007	0.0007
O=C(Nc1nccs1)[C@H](Cc1ccccc1)Nc1nc(Nc2cc(C3CC3)[nH]n2)c2cccn2n1 [Compound 44, (2S)-2-((4-((5-cyclopropyl-1H-pyrazol-3-yl)amino)pyrrolo[2,1-f][1,2,4]triazin-2-yl)amino)-3-phenyl-N-1,3-thiazol-2-ylpropanamide]	0.001	0.002

The next lines start with the values.

IC50 [1] [µM]	IC50 [2] [µM]	Structure (SMILES)
0.0001	0.0003	C[C@H](Nc1nc(Nc2cc(C3CC3)n[nH]2)c2cccn2n1)c1ccc(F)cc1 [Compound 2, N^4-(3-cyclopropyl-1H-pyrazol-5-yl)-N^2-((1S)-1-(4-fluorophenyl)ethyl)pyrrolo[2,1-f][1,2,4]triazine-2,4-diamine]
0.0005	0.0009	O[C@H]1CC[C@H](Nc2nc(Nc3cc(C4CC4)n[nH]3)c3cccn3n2)CC1 [Compound 38, trans-4-((4-((3-cyclopropyl-1H-pyrazol-5-yl)amino)pyrrolo[2,1-f] [1,2,4]triazin-2-yl)amino) cyclohexanol]
0.003	0.004	CCC(O)CNc1nc(Nc2cc(C3CC3)n[nH]2)c2cccn2n1 (centres unmarked) [Compound 40, 1-((4-((3-cyclopropyl-1H-pyrazol-5-yl)amino)pyrrolo[2,1-f][1,2,4]triazin-2-yl)amino)-2-butanol]
0.018	0.031	c1cc2c(Nc3cc(C4CC4)n[nH]3)nc(N[C@H]3CCNC3)nn2c1 [Compound 41, N^4-(3-cyclopropyl-1H-pyrazol-5-yl)-N^2-((3S)-3-pyrrolidinyl)pyrrolo [2,1-f][1,2,4]triazine-2,4-diamine]
0.0003	0.0003	O=C(CNc1nc(Nc2cc(C3CC3)n[nH]2)c2cccn2n1)Nc1nccs1 [Compound 43, 2-((4-((3-cyclopropyl-1H-pyrazol-5-yl)amino)pyrrolo[2,1-f][1,2,4]triazin-2-yl)amino)-N-1,3-thiazol-2-ylacetamide]
0.012	0.005	CC(C)[C@H](CO)NC(=O)[C@H](C)Nc1nc(Nc2cc(C3CC3)n[nH]2)c2cccn2n1 [Compound 49, (2S)-2-((4-((3-cyclopropyl-1H-pyrazol-5-yl)amino)pyrrolo[2,1-f][1,2,4]triazin-2-yl)amino)-N-((1R)-1-(hydroxymethyl)-2-methylpropyl)propanamide]
